According to US10035792B2, “Resorcinol derivative as HSP90 inhibitor” (priority 2015, dated 2018):
Like-named read-outs stand apart in the source and are kept apart here.

Legend:
HSP90α = HSP90α (Homo sapiens (Human), UniProt P07900); assay: Fluorescence polarization (FP) HSP90-alpha target binding assay
From the text: In the present invention, the method of fluorescence polarization (FP) was used to establish the screening platform for HSP90-alpha inhibitors. The principle based on is to calculate fluorescence polarization values in horizontal and vertical directions by detecting molecular weight changes before and after interaction of fluorescent labeled small molecules with other molecules, in use for correlation analysis. If binding equilibria between the fluorescent labeled small molecule and the macromolecule is established, it moves slowly when excited, and the fluorescence polarization values measured will increase. If the fluorescent labeled small molecule binding to the macromolecule is replaced with other ligands, its rotational or inversional speed in free state will become faster, the emitted light would be depolarized with respect to the exciting light plane, and thus the polarized light value measured will decrease, so as to calculate the polarization value of the sample (the unit of polarization value is mP).
The fluorescent labeled small molecule used in the present invention was VER-00051001 (synthesized by reference to the synthetic method described in JMC, 2008, 51, 196-218). The reaction was carried out in a 384-well black plate, using the reaction hydrophobic protein HFB buffer: 100 mM Tris.Cl pH 7.4, 20 mM KCl, 6 mM MgCl2, 5 μg/mL BSA, 25 nM full-length Hsp90U, 10 nM VER-51001. The volume of the reaction system was […], containing 5 nM GM-BODIPY (geldanamycin), 30 nM HSP90 and the test small molecular compound or DMSO (dimethyl sulfoxide), wherein the DMSO content was 2% o. Additional two group wells were established, wherein the wells only added with HFB buffer were used as blank controls, and the wells further added with 5 nM GM-BODIPY were used as negative controls. The reaction was carried out at 4° C. for 12-16 hours. The mP value was measured by Biotek microplate reader at 485 nm of excitation wavelength and 535 nm of emission wavelength. The inhibition rate was calculated using the following equation: (Compound-free mP−Compound mP)/(Compound-free mP−negative control mP)×100%

[1] = tested on: human lung cancer cell line A549; assay: Tumor cell growth inhibition, SRB staining, A549; assay type: cell-based; details: A549, 72 h
Protocol: The growth inhibition assay of tumor cells was detected by sulforhodamine B (SRB) staining method. The specific steps were as follows: inoculating human colon cancer cell line HCT116 and human lung cancer cell line A549 (purchased from American Type Culture Collection, ATCC) at the logarithmic growth phase into a 96-well micro culture plate at an appropriate concentration of 4000 cells/well, 100 μL for each well; after culturing overnight, adding with the compound at different concentrations (100, 10, 1, 0.1, 0.01 μM) to react for 72 h, wherein triplicate wells were set up for each concentration, and solvent control wells with the corresponding concentration and zero wells without cells were also set up. After the completion of the reaction, the culture medium was removed from the adherent cells, the later was added with 10% (w/v) trichloroacetic acid (100 μL/well) at 4° C. to fix for 1 h, and then washed five times with distilled water. After drying at room temperature, 100 μL of SRB solution (4 mg/mL, dissolved in 1% glacial acetic acid) was added into each well, followed by incubation and staining for 15 min at room temperature. The uncombined SRB was removed by washing five times with 1% glacial acetic acid. After drying at room temperature, 100 μL of 10 mM Tris solution was added into each well, and the optical density (OD) at 515 nm was measured by a […] microplate reader. The inhibition rate of the drug to tumor cell growth was calculated according to the following equation: Inhibition rate (%)=(OD of control well-OD of drug well)/OD of control well×100%. The experiment was repeated twice.

[2] = fluorescence polarization, read-out: Target binding ability HSP90α FP IC50

SMILES	IC50 (HSP90α; [2]) [nM]	EC50 [1] [nM]	IC50 (HSP90α) [nM]
CCNC(=O)c1noc(-c2cc(C)c(O)cc2O)c1-c1ccc2c(c1)CCN(C)C2 [Example 32, 5-(2,4-dihydroxyl-5-methylphenyl)-N-ethyl-4-(2-methyl-1,2,3,4-tetrahydroisoquinolin-6-yl)isoxazole-3-carboxamide]	< 20	> 100	–
CCNC(=O)c1noc(-c2cc(C(C)C)c(O)cc2O)c1-c1ccc2c(n1)CCN(C)C2 [Example 11, 5-(2,4-dihydroxyl-5-isopropylphenyl)-N-ethyl-4-(6-methyl-5,6,7,8-tetrahydro-1,6-naphthyridin-2-yl)isoxazole-3-carboxamide]	20 to 100	< 20	–
CC(C)c1cc(-c2onc(C(=O)NCCF)c2-c2ccc3c(c2)CCN(C)C3)c(O)cc1O [Example 40, 5-(2,4-dihydroxyl-5-isopropylphenyl)-N-(2-fluoroethyl)-4-(2-methyl-1,2,3,4-tetrahydroisoquinolin-6-yl)isoxazole-3-carboxamide]	< 20	< 20	–
CC(C)c1cc(-c2onc(C(=N)NC#N)c2-c2ccc3c(c2)CCN(C)C3)c(O)cc1O [Example 21, N-cyano-5-(2,4-dihydroxyl-5-isopropylphenyl)-4-(2-methyl-1,2,3,4-tetrahydroisoquinolin-6-yl)isoxazole-3-carboxamidine]	< 20	> 100	–
CCNC(=O)c1noc(-c2cc(Br)c(O)cc2O)c1-c1ccc2c(c1)CCN(C)C2 [Example 30, 5-(2,4-dihydroxyl-5-bromo-phenyl)-N-ethyl-4-(2-methyl-1,2,3,4-tetrahydroisoquinolin-6-yl)isoxazole-3-carboxamide]	20 to 100	> 100	–
CCNC(=O)c1noc(-c2cc(C(C)C)c(O)cc2O)c1-c1ccc2c(c1)C1CCC2N1 (stereo not shown) [Example 4, 5-(2,4-dihydroxyl-5-isopropylphenyl)-N-ethyl-4-(1,2,3,4-tetrahydro-1,4-epiminonaphth-6-yl)isoxazole-3-carboxamide]	–	20 to 100	20 to 100
CCNC(=O)c1noc(-c2cc(C(C)C)c(O)cc2O)c1-c1nc2c(n1C)CCN(CC(C)C)C2 [Example 24, 5-(2,4-dihydroxyl-5-isopropylphenyl)-N-ethyl-4-(5-isobutyl-1-methyl-4,5,6,7-tetrahydro-1H-imidazo[4,5-c]pyridin-2-yl)isoxazole-3-carboxamide]	20 to 100	20 to 100	–
CCNC(=O)c1noc(-c2cc(CC(C)C)c(O)cc2O)c1-c1ccc2c(c1)CCN(C)C2 [Example 33, 5-(5-isobutyl-2,4-dihydroxyl-phenyl)-N-ethyl-4-(2-methyl-1,2,3,4-tetrahydroisoquinolin-6-yl)isoxazole-3-carboxamide]	20 to 100	> 100	–
CCNC(=O)c1noc(-c2cc(C(C)C)c(O)cc2O)c1-c1ccc2c(c1)C1CCC2N1C(C)C (stereo not shown) [Example 7, 5-(2,4-dihydroxyl-5-isopropylphenyl)-N-ethyl-4-(9-isopropyl-1,2,3,4-tetrahydro-1,4-epiminonaphth-6-yl)isoxazole-3-carboxamide]	–	< 20	20 to 100
CC(C)NC(=O)c1noc(-c2cc(C(C)C)c(O)cc2O)c1-c1ccc2c(c1)CCN(C)C2 [Example 38, 5-(2,4-dihydroxyl-5-isopropylphenyl)-N-isopropyl-4-(2-methyl-1,2,3,4-tetrahydroisoquinolin-6-yl)isoxazole-3-carboxamide]	20 to 100	20 to 100	–
CC(C)c1cc(-c2onc(C(=O)NCC(F)(F)F)c2-c2ccc3c(c2)CCN(C)C3)c(O)cc1O [Example 39, 5-(2,4-dihydroxyl-5-isopropylphenyl)-N-(2,2,2-trifluoroethyl)-4-(2-methyl-1,2,3,4-tetrahydroisoquinolin-6-yl)isoxazole-3-carboxamide]	20 to 100	20 to 100	–
CCNC(=O)c1noc(-c2cc(CC)c(O)cc2O)c1-c1ccc2c(c1)CCN(C)C2 [Example 34, 5-(5-ethyl-2,4-dihydroxyl-phenyl)-N-ethyl-4-(2-methyl-1,2,3,4-tetrahydroisoquinolin-6-yl)isoxazole-3-carboxamide]	< 20	20 to 100	–
CCc1cnc(-c2noc(-c3cc(C(C)C)c(O)cc3O)c2-c2ccc3c(c2)CCN(C)C3)[nH]1 [Example 16, 4-(3-(5-ethyl-1H-imidazol-2-yl)-4-(2-methyl-1,2,3,4-tetrahydroisoquinolin-6-yl)isoxazol-5-yl)-6-isopropylbenzene-1,3-diol]	20 to 100	< 20	–
CCNC(=O)c1onc(-c2cc(C(C)C)c(O)cc2O)c1-c1ccc2c(c1)CCNCC2 [Example 28, 3-(2,4-dihydroxyl-5-isopropylphenyl)-N-ethyl-4-(2,3,4,5-tetrahydro-1H-3-benzazepin-7-yl) isoxazole-5-carboxamide]	< 20	< 20	–

The next lines start with results.

IC50 (HSP90α; [2]) [nM]	EC50 [1] [nM]	SMILES	IC50 (HSP90α) [nM]
20 to 100	> 100	CCNC(=O)c1noc(-c2cc(C(C)C)c(O)cc2O)c1-c1ccc2c(c1)CCN(C(=O)CN1CCOCC1)C2 [Example 60, 5-(2,4-dihydroxyl-5-isopropylphenyl)-N-ethyl-4-(2-(2-morpholino-4-yl-acetyl)-1,2,3,4-tetrahydroisoquinolin-6-yl)isoxazole-3-carboxamide]	–
< 20	< 20	CC(C)c1cc(-c2noc(C(=O)NCCF)c2-c2ccc3c(c2)CCN(C)C3)c(O)cc1O [Example 65, 3-(2,4-dihydroxyl-5-isopropylphenyl)-N-(2-fluoroethyl)-4-(2-methyl-1,2,3,4-tetrahydroisoquinolin-6-yl)isoxazole-5-carboxamide]	–
20 to 100	< 20	CCCN1CCc2cc(-c3c(C(=O)NCC)noc3-c3cc(C(C)C)c(O)cc3O)ccc2C1 [Example 50, 5-(2,4-dihydroxyl-5-isopropylphenyl)-N-ethyl-4-(2-propyl-1,2,3,4-tetrahydroisoquinolin-6-yl)isoxazole-3-carboxamide]	–
20 to 100	20 to 100	CCNC(=O)c1noc(-c2cc(C(C)C)c(O)cc2O)c1-c1ccc2c(c1)CCN(C(C)C)C2 [Example 51, 5-(2,4-dihydroxyl-5-isopropylphenyl)-N-ethyl-4-(2-isopropyl-1,2,3,4-tetrahydroisoquinolin-6-yl)isoxazole-3-carboxamide]	–
< 20	< 20	CC(C)c1cc(-c2noc(C(=O)NCCCO)c2-c2ccc3c(c2)CCN(C)C3)c(O)cc1O [Example 66, 3-(2,4-dihydroxyl-5-isopropylphenyl)-N-(3-hydroxylpropyl)-4-(2-methyl-1,2,3,4-tetrahydroisoquinolin-6-yl)isoxazole-5-carboxamide]	–
20 to 100	> 100	CCNC(=O)c1noc(-c2cc(C(C)C)c(O)cc2O)c1-c1ccc2c(c1)CCN(CC(=O)N(C)C)C2 [Example 55, 5-(2,4-dihydroxyl-5-isopropylphenyl)-4-(2-(2-(dimethylamino)-2-oxoethyl)-1,2,3,4-tetrahydroisoquinolin-6-yl)-N-ethylisoxazole-3-carboxamide]	–
20 to 100	< 20	CCNC(=O)c1noc(-c2cc(C(C)C)c(O)cc2O)c1-c1ccc2c(c1)CCN(CCF)C2 [Example 46, 5-(2,4-dihydroxyl-5-isopropylphenyl)-N-ethyl-4-(2-(2-fluoroethyl)-1,2,3,4-tetrahydroisoquinolin-6-yl)isoxazole-3-carboxamide]	–
< 20	< 20	CC(C)c1cc(-c2noc(C(N)=O)c2-c2ccc3c(c2)CCN(C)C3)c(O)cc1O [Example 61, 3-(2,4-dihydroxyl-5-isopropylphenyl)-4-(2-methyl-1,2,3,4-tetrahydroisoquinolin-6-yl)isoxazol-5-carboxamide]	–
< 20	20 to 100	CCNC(=O)c1onc(-c2cc(C(C)C)c(O)cc2O)c1-c1ccc2c(c1)CCN(CCOC)C2 [Example 70]	–
